Active and inactive are the calls of the source.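 Rule for the calls: active = compounds giving half or more protection of infected cells from virus-caused growth loss, again on retest; inactive = the rest.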 Where a SMILES comes first, the peptide text is derived from it.
System: CEM cells HIV-1 protection, formazan growth assay
Assay: NCI AIDS Antiviral Assay
Details: for IC50: measured here: growth of uninfected CEM cells
How it was run: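 Five concentrations of each compound were applied to infected and uninfected human CEM cells. Protection from HIV-1 was judged from growth measured with a soluble formazan assay.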

SMILES	EC50	IC50	outcome
O=C1C(c2ccccc2)=C(c2ccccc2)C(c2ccc(-c3ccc(C4=C(c5ccccc5)C(=O)C(c5ccccc5)=C4c4ccccc4)cc3)cc2)=C1c1ccccc1	> 3.55 µM	> 3.55 µM	–
COc1cc2c(cc1O)C1(C(=O)c3ccc4c(c3[C@H]1O)OCO4)N(C)CC2 (stereo not given in full)	–	–	inactive
CCOC(=O)C(C[Si](C)(C)C)P(=O)(OCC)OCC (stereo not given)	> 575 µM	537 µM	–
OCCNCCN=C1CCC(=NCCNCCO)CC1	> 200 µM	32.4 µM	–
CCCN(CCC)CCc1cc(C(C)=O)n(S(=O)(=O)c2ccc(C)cc2)c1	> 589 µM	263 µM	–
O=C(CCCCCCCCC(=O)N1C(=O)CC(=O)N(c2ccccc2)C1=S)N1C(=O)CC(=O)N(c2ccccc2)C1=S	> 200 µM	123 µM	–
O=C1C=CC(=O)C(CNc2ccc(C(=O)OC34CC5CC(CC(C5)C3)C4)cc2)=C1Br	> 200 µM	1.51 µM	–
C=CCc1c(C(O)CNC(C)C)ccc(OC)c1OCc1ccccc1 (stereo not given)	> 200 µM	30.2 µM	–
C=C1C(=O)OC2CC(C)C(C(CC(C)=O)OC(C)=O)=CCC12 (stereo not given)	> 324 µM	1.58 µM	–
C[Si](C)(C)C#CCOC=C1CC1	–	–	inactive
[O-]c1c[n+](C23CCC(c4ccccc42)c2ccccc23)no1	> 200 µM	97.7 µM	–
O=[N+]([O-])/C(C(Cl)=C(Cl)Cl)=C(/Nc1ccccc1)Sc1ccccc1	> 200 µM	23.4 µM	–
c1cc(C2=NCCO2)c2ccsc2c1	> 200 µM	155 µM	–
CCOC(=O)c1cc2c([nH]1)c(O)cc1c2ccn1Cc1ccccc1	> 200 µM	29.5 µM	–
O=C(CBr)Nc1ccccc1-c1ccccc1NC(=O)CBr	–	–	inactive
O=C1CCC(=O)N1n1c(Cc2ccccc2)n[nH]c1=O	> 200 µM	> 200 µM	–
CC(=O)Oc1c2c(cc3c1C(=O)NC1C3=CC(O)[C@@H](OC(C)=O)[C@H]1OC(C)=O)OCO2 (stereo not given in full)	–	–	inactive
N#CC1=C(N)N(/N=C/c2ccco2)C(c2ccco2)C1(C#N)C#N (stereo not given)	> 200 µM	7.94 µM	–
Nc1nc(Cl)cc(NCCCCCNc2cc(Cl)nc(N)n2)n1	–	–	inactive
CC1=C(C(=O)Nc2ccccc2)C2(CCCCC2)C(C#N)=C(SCC(=O)Nc2ccc(Br)cc2)N1	> 200 µM	12.3 µM	–
CN(C(=O)C12C3C4C1C1C2C3C41C(N)=O)C(C)(C)C (stereo not given)	> 52.5 µM	> 52.5 µM	–

SMILES	EC50	IC50	outcome
O=C(CNC(=O)OCc1ccccc1)NCCCCC(NC(=O)OCc1ccccc1)C(=O)O (stereo not given)	> 200 µM	> 200 µM	–
CCCCN1C(=O)c2cccc3cccc(c23)C1=O	> 200 µM	112 µM	–
O=C1[O][Bi]23[O]C(=O)C([O]2)C1[O]3	> 36.3 µM	> 36.3 µM	–
Nc1ncnc2c1ncn2C1C=CC(CP(=O)(O)O)C1 (stereo not given)	> 200 µM	> 200 µM	–
Nc1cnn2cnnc2c1	> 200 µM	> 200 µM	–
O=CNC(CSSCC(NC=O)C(=O)O)C(=O)O (stereo not given)	> 200 µM	> 200 µM	–
CCOC1(OCC)C2C=CC1C(COS(=O)(=O)c1ccc(C)cc1)C2COS(=O)(=O)c1ccc(C)cc1 (stereo not given)	> 200 µM	14.1 µM	–
CCOC(=O)C1(C(=O)OCC)CCCN1C(=O)[C@H](CNC(=O)OC(C)(C)C)NC(=O)OCc1ccccc1	–	–	inactive
CCOc1ccc2c(C)cc(=O)oc2c1	> 66.1 µM	> 66.1 µM	–
CCCCN(CC)C(=O)COc1cc2c(O)c3c(O)c(C)c4c(c13)C(=O)C(C)(O/C=C\C(OC)C(C)C(OC(C)=O)C(C)C(O)C(C)C(O)C(C)/C=C\C=C(\C)C(=O)N2)O4 (stereo not given)	–	–	inactive
Cc1ccc(S(=O)(=O)N2CCCN(S(=O)(=O)c3ccc(C)cc3)CC2)cc1	> 45.7 µM	> 45.7 µM	–
CC(C)CC(NC(=O)C(CCC(=O)O)NC(=O)CNC(=O)CNC(=O)C(CO)NC(=O)C(CC(C)C)NC(=O)C(NC(=O)C(CO)NC(=O)C(C)NC(=O)C(CCCNC(=N)N)NC(=O)C(C)NC(=O)CN)C(C)C)C(=O)NC(CC(=O)O)C(=O)NC(CCCNC(=N)N)C(=O)NC(Cc1c[nH]c2ccccc12)C(=O)NC(Cc1ccc(O)cc1)C(N)=O (stereo not given) (H-GARASVLSGGELDRWY-NH2; configuration not given here)	> 145 µM	> 145 µM	–
CN(C)CC/C=C1\c2ccccc2CSc2ccccc21	> 200 µM	32.4 µM	–
COc1cc2c(cc1O)C1CC(CC3CCCCN31)OC(=O)/C=C\c1ccc(O)c-2c1 (stereo not given)	> 200 µM	45.7 µM	–
N#Cc1nc(-c2cccc(-c3nc(C#N)c(N)o3)n2)oc1N	–	–	inactive
CCOC(C)O[C@H]1C(=O)OCC1(C)C (stereo not given in full)	77.6 µM	> 200 µM	–
NC(=O)c1nnsc1-c1ccco1	> 200 µM	> 200 µM	–
Cc1ccc(NC(=O)CC/C(CC(=O)C(C)(C)C)=N\Nc2ccc([N+](=O)[O-])cc2[N+](=O)[O-])cc1C	> 14.8 µM	> 14.8 µM	–
COc1ccc(/C=C2\N=C(N/N=C\C(O)C(O)C(O)C(O)CO)NC2=O)cc1 (stereo not given)	> 200 µM	107 µM	–
Cc1c(Cl)ccc2c1NC(=O)C2(O)C(C(=O)c1ccccc1)c1ccccc1 (stereo not given)	> 66.1 µM	> 66.1 µM	–
Cc1cc(N(CCC#N)CCC#N)ccc1N=Nc1ccccc1[N+](=O)[O-]	> 14.5 µM	> 14.5 µM	–

SMILES	EC50	IC50	outcome
Cc1ccc2c(c1)P(=O)(O)c1cc(C)ccc1S2(=O)=O	> 200 µM	> 200 µM	–
COC(=O)c1ccc(NCc2c(O)ccc(O)c2Br)cc1Cl	> 14.8 µM	6.46 µM	–
CCOC(=O)c1ccc(Nc2cnc3cc(C(F)(F)F)ccc3n2)cc1	> 200 µM	141 µM	–
COc1ccc(C(C#N)NCCCCCCNC(C#N)c2ccc(OC)cc2)cc1 (stereo not given)	> 200 µM	> 200 µM	–
CCOC(=O)Nc1ccc2nc(N3CCCCCC3)sc2c1	> 58.9 µM	1.02 µM	–
O=C1CCC2(c3ccc(Cl)cc3)Nc3ccncc3N12 (stereo not given)	> 631 µM	91.2 µM	–
CC1=CC(N2C(=O)C(C)=CC2O)NC1=O (stereo not given)	–	–	inactive
COc1cc(-c2cc(-c3cc([N+](=O)[O-])c(/C=N/NC(=O)c4ccncc4)o3)ccc2OC)ccc1C	> 269 µM	55 µM	–
COc1ccc(/C=N/NC(=O)c2ccc(O)c(CN(C)C)c2)cc1	> 200 µM	> 200 µM	–
COc1nc(C(=O)O)c(Cl)c(OC)c1Cl	> 513 µM	> 513 µM	–
OCC1OC2NC(=S)OC2C(O)C1O (stereo not given)	> 200 µM	> 200 µM	–
COc1ccc(NC(=O)C(=O)C2NC(=S)NC2=O)c(OC)c1 (stereo not given)	> 776 µM	> 776 µM	–
CCCNC(=S)/N=C/c1c(O)cc(C)oc1=O	> 200 µM	> 200 µM	–
CC1(C)C(C(=O)O)C1C(=O)O (stereo not given)	> 200 µM	> 200 µM	–
COc1cc(C2c3cc4c(cc3C(O)[C@H]3COC(=O)C23)OCO4)cc(OC)c1O (stereo not given in full)	> 200 µM	0.0631 µM	–
NC(N)=N/N=C/C(Cl)(Cl)Cl	> 200 µM	> 200 µM	–
Cc1c(O)c2ccc(Cl)cc2n(C)c1=O	> 200 µM	> 200 µM	–
O=c1c2ccccc2nc(-c2ccccc2)n1NC(=S)Nc1cccc(Cl)c1	> 33.1 µM	> 33.1 µM	–
CC(C)N(C(=O)C12C3C4C5C3C1(C(=O)N(C(C)C)C(C)C)C5C42)C(C)C (stereo not given)	> 100 µM	> 100 µM	–
Cn1nc(-c2ccccc2)c(C(=O)/C=C/c2ccc(Cl)cc2)c(N2CCCCC2)c1=O	> 17.8 µM	> 17.8 µM	–
